We go through 14 compounds from patent US10369138B2, “Monobactam organic compounds for the treatment of bacterial infections” (Novartis AG, priority 2014, dated 2019).

Experiment [1] concerns E. coli strain 25922. The experiment is described as follows: MIC by broth microdilution, E. coli strain 25922. Type of experiment: cell-based. As to conditions: Escherichia coli, 25922, E. coli strain 25922; read-out: Ec 25922 (MIC). The method, then:
(§1) Bacterial isolates were cultivated from −70° C. frozen stocks by two consecutive overnight passages at 35° C. in ambient air on 5% blood agar (Remel, Lenexa, Kans.). Quality control and P. aeruginosa ATCC 27853) is from the American Type Culture Collection (ATCC; Rockville, Md.) and PAO1 was received from Dr. K. Poole.
Minimal Inhibitory Concentrations (MICs) were determined by the broth microdilution method in accordance with Clinical and Laboratories Institute (CLSI) guidelines. In brief, fresh overnight bacterial cultures were suspended in sterile saline, and adjusted to a 0.5 McFarland turbidity standard. Bacterial suspensions were then diluted in cation adjusted Mueller-Hinton Broth (MHB II; BBL) to yield a final inoculum of approximately 5×10^5 colony-forming units (CFU)/mL. A master plate of antibiotics was prepared at a concentration equivalent to hundred-fold the highest desired final concentration in 100% dimethyl sulfoxide (DMSO). The master antibiotic plate was then diluted by serial twofold dilution with a multichannel pipette. The resulting dilution series of compounds were diluted 1:10 with sterile water leading to a 10% DMSO final concentration. A volume of 10 μL of the drug dilution series was transferred to 96-well assay plates. Assay plates were inoculated with 90 μL of bacterial suspensions and incubated at 35-37° C. for 20 hrs. The assay plates were read using a microtiter plate reader (Molecular Devices) at 600 nm as well as by visual observation with a reading mirror. The lowest concentration of the compound that prevented visible growth was recorded as the MIC. Performance of the assay was monitored by testing aztreonam against laboratory quality control strains in accordance with guidelines of the CLSI.

For experiment [2], the system named is E. coli containing KPC-2. The experiment is described as follows: MIC by broth microdilution, E. coli containing KPC-2 (Ec KPC2 Iso). It counts as cell-based. As to conditions: Escherichia coli, read-out: Ec KPC2 Iso (MIC), E. coli containing KPC-2 (carbapenemase from Klebsiella pneumoniae). The method, then:
as §1
Strain NB27273 (BW25113 pspB::Km^r) was obtained from the Keio transposon insertion collection. The strain has the pspB gene replaced by a kanamycin resistance marker (BW25113 pspB::Km^r). This strain was cured of the transposon in pspB via FLP recombinase using published methodology. The resulting strain, BW25113 pspB, was used as a host for multicopy vectors expressing key β-lactamases. Multicopy plasmids directing constitutive expression of β-lactamases were established as follows: Synthetic, codon optimized genes encoding E. coli KPC2 and SHV12 β-lactamases were made by DNA2.0 (Palo Alto, Calif.). Each of the synthetic fragments were designed to contain NotI and NcoI restriction sites at their termini, allowing ligation into a NotI/NcoI digested pET28a(+) derivative for protein expression. […] The codon optimized nucleotide sequences and relevant primer recognition information is shown below:
The PCR products were then digested with XhoI and EcoRI and ligated into similarly digested plasmid pAH63-pstS(BlaP). Plasmid pAH63-pstS(BlaP) is a derivative of plasmid pAH63 (J Bacteriol: 183(21): 6384-6393) made by cloning the TEM-1 (bla) promoter and signal peptide encoding region from plasmid pBAD (J Bacteriol. 1995 July 177(14):4121-30) into plasmid pAH63. This fragment was PCR amplified from pBAD using primer pair E192 (ttca[…]) (SEQ ID NO:13) and E194 ([…]) (SEQ ID NO:14), digested with PstI and BamHI and inserted into similarly digested plasmid pAH63. Therefore, expression of β-lactamases from pAH63-pstS(BlaP) based constructs is constitutive and the signal sequence is provided to direct these proteins to the periplasm. Plasmid pAH63 based vectors are used for insertion into the genome in single copy, however, to provide higher expression levels to allow more sensitive detection of the susceptibility of compounds to the β-lactamases, the expression inserts contained in these vectors were moved to the replicative multicopy vector pBAD-Kan (J Bacteriol. 1995 July 177(14):4121-30). To accomplish this, the inserts encompassing the β-lactamase genes, with the associated TEM promoter and signal sequences, were PCR amplified from their corresponding vectors using primer E269 (ccg[…]) (SEQ ID NO:15) and E202 (aatc[…]) (SEQ ID NO:16) for the KPC2 construct and E204 (aatc[…]) (SEQ ID NO:17) for the SHV12 construct. These fragments were then digested with XbaI and EcoRI, and each was inserted into pBAD18-kan that had been digested with the same enzymes to generate a pair of multicopy vectors expressing KPC2 and SHV12 respectively. These vectors were transformed into BW25113 pspB to generate strains NB27273-CDY0033 (expressing KPC2) and NB27273-CDY0030 (expressing SHV12). The pBAD18-kan vector also contains the TEM promoter region and signal sequence, (but lacks any intact β-lactamase genes) and was transformed into BW25113 pspB using standard protocols to generate the control strain NB27273-CDY0026. Expression of the β-lactamases was confirmed by verifying decreased susceptibility to example test antibiotics that are known substrates of KPC2 or SHV12. Susceptibility Testing
Minimal Inhibitory Concentrations (MICs) were determined by the broth microdilution method in accordance with Clinical and Laboratories Institute (CLSI) guidelines. In brief, fresh overnight bacterial cultures were suspended in sterile saline, and adjusted to a 0.5 McFarland turbidity standard. Bacterial suspensions were then diluted in cation adjusted Mueller-Hinton Broth (MHB II; BBL) to yield a final inoculum of approximately 5×10^5 colony-forming units (CFU)/mL. […]

In brackets after ≈: the same amount, converted by molar mass.

Consider `CC(C)(O/N=C(\C(=O)N[C@@H]1C(=O)N(S(=O)(=O)O)[C@@H]1CN1CCCCC1=O)c1csc(N)n1)C(=O)O` [Example 14, 2-(((Z)-(1-(2-aminothiazol-4-yl)-2-oxo-2-(((3S,4R)-2-oxo-4-((2-oxopiperidin-1-yl)methyl)-1-sulfoazetidin-3-yl)amino)ethylidene)amino)oxy)-2-methylpropanoic acid], for which the MIC was determined as 16 µg/mL (≈ 30 µM) in experiment [1] and 8 µg/mL (≈ 15 µM) in experiment [2].
Regarding `CC(C)(O/N=C(\C(=O)N[C@@H]1C(=O)N(S(=O)(=O)O)[C@@H]1Cn1ccccc1=O)c1csc(N)n1)C(=O)O` [Example 15, 2-(((Z)-(1-(2-aminothiazol-4-yl)-2-oxo-2-(((3S,4R)-2-oxo-4-((2-oxopyridin-1(2H)-yl)methyl)-1-sulfoazetidin-3-yl)amino)ethylidene)amino)oxy)-2-methylpropanoic acid], the MIC in experiment [1] was found to be 16 µg/mL (≈ 30.3 µM); in experiment [2], 8 µg/mL (≈ 15.1 µM).
The matching figures for `CC(C)(O/N=C(\C(=O)N[C@@H]1C(=O)N(S(=O)(=O)O)[C@@H]1Cn1cncn1)c1nsc(N)n1)C(=O)O` [Example 16, 2-(((Z)-(2-(((2R,3S)-2-((1H-1,2,4-triazol-1-yl)methyl)-4-oxo-1-sulfoazetidin-3-yl)amino)-1-(5-amino-1,2,4-thiadiazol-3-yl)-2-oxoethylidene)amino)oxy)-2-methylpropanoic acid]: 4 µg/mL (≈ 7.94 µM) and 2 µg/mL (≈ 3.97 µM).
For `Nc1nc(/C(=N/OCC(=O)O)C(=O)N[C@@H]2C(=O)N(S(=O)(=O)O)[C@@H]2Cn2cncn2)cs1` [Example 17, 2-(((Z)-(2-(((2R,3S)-2-((1H-1,2,4-triazol-1-yl)methyl)-4-oxo-1-sulfoazetidin-3-yl)amino)-1-(2-aminothiazol-4-yl)-2-oxoethylidene)amino)oxy)acetic acid] the same measures were 0.5 µg/mL (≈ 1.05 µM) and 0.25 µg/mL (≈ 0.527 µM).
The matching figures for `Nc1nc(/C(=N/OC2(C(=O)O)CC2)C(=O)N[C@@H]2C(=O)N(S(=O)(=O)O)[C@@H]2Cn2cncn2)cs1` [Example 18, 1-(((Z)-(2-(((2R,3S)-2-((1H-1,2,4-triazol-1-yl)methyl)-4-oxo-1-sulfoazetidin-3-yl)amino)-1-(2-aminothiazol-4-yl)-2-oxoethylidene)amino)oxy)cyclopropanecarboxylic acid]: 0.5 µg/mL (≈ 0.999 µM) and 0.25 µg/mL (≈ 0.5 µM).
On to `NCc1cnn(C[C@@H]2[C@H](NC(=O)/C(=N\OC3(C(=O)O)CC3)c3csc(N)n3)C(=O)N2S(=O)(=O)O)n1` [Example 19, 1-(((Z)-(2-(((2R,3S)-2-((4-(aminomethyl)-2H-1,2,3-triazol-2-yl)methyl)-4-oxo-1-sulfoazetidin-3-yl)amino)-1-(2-aminothiazol-4-yl)-2-oxoethylidene)amino)oxy)cyclopropanecarboxylic acid], for which the MIC in experiment [1] and in experiment [2] was 0.25 µg/mL (≈ 0.472 µM) each time.
Turning to `Nc1nc(/C(=N/OCC(=O)O)C(=O)N[C@@H]2C(=O)N(S(=O)(=O)O)[C@@H]2CN2CCOC2=O)cs1` [Example 21, 2-(((Z)-(1-(2-aminothiazol-4-yl)-2-oxo-2-(((3S,4R)-2-oxo-4-((2-oxooxazolidin-3-yl)methyl)-1-sulfoazetidin-3-yl)amino)ethylidene)amino)oxy)acetic acid], the MIC in experiment [1] turned out to be 0.25 µg/mL (≈ 0.508 µM); in experiment [2] it was 0.5 µg/mL (≈ 1.02 µM).
In the case of `C[C@@H]1CN(C[C@@H]2[C@H](NC(=O)/C(=N\OC(C)(C)C(=O)O)c3csc(N)n3)C(=O)N2S(=O)(=O)O)C(=O)O1` [Example 23, 2-(((Z)-(1-(2-aminothiazol-4-yl)-2-(((2R,3S)-2-(((R)-5-methyl-2-oxooxazolidin-3-yl)methyl)-4-oxo-1-sulfoazetidin-3-yl)amino)-2-oxoethylidene)amino)oxy)-2-methylpropanoic acid], the MIC in experiment [1] worked out at 2 µg/mL (≈ 3.74 µM); in experiment [2], 1 µg/mL (≈ 1.87 µM).
As for `CC(C)(O/N=C(\C(=O)N[C@@H]1C(=O)N(S(=O)(=O)O)[C@@H]1CN1C[C@@H](CNC(=N)N)OC1=O)c1csc(N)n1)C(=O)O` [Example 24, 2-(((Z)-(1-(2-aminothiazol-4-yl)-2-(((2R,3S)-2-(((R)-5-(guanidinomethyl)-2-oxooxazolidin-3-yl)methyl)-4-oxo-1-sulfoazetidin-3-yl)amino)-2-oxoethylidene)amino)oxy)-2-methylpropanoic acid], the MIC in experiment [1] came to 0.25 µg/mL (≈ 0.423 µM); in experiment [2], 1 µg/mL (≈ 1.69 µM).
For `NC[C@@H]1CN(C[C@@H]2[C@H](NC(=O)/C(=N\OC3(C(=O)O)CC3)c3csc(N)n3)C(=O)N2S(=O)(=O)O)C(=O)O1` [Example 25, 1-(((Z)-(2-(((2R,3S)-2-(((R)-5-(aminomethyl)-2-oxooxazolidin-3-yl)methyl)-4-oxo-1-sulfoazetidin-3-yl)amino)-1-(2-aminothiazol-4-yl)-2-oxoethylidene)amino)oxy)-cyclopropanecarboxylic acid] the same measures were 0.125 µg/mL (≈ 0.228 µM) and at most 0.06 µg/mL.
Regarding `N=C(N)NC[C@@H]1CN(C[C@@H]2[C@H](NC(=O)/C(=N\OC3(C(=O)O)CC3)c3csc(N)n3)C(=O)N2S(=O)(=O)O)C(=O)O1` [Example 26, 1-(((Z)-(1-(2-aminothiazol-4-yl)-2-(((2R,3S)-2-(((R)-5-(guanidinomethyl)-2-oxooxazolidin-3-yl)methyl)-4-oxo-1-sulfoazetidin-3-yl)amino)-2-oxoethylidene)amino)oxy)-cyclopropanecarboxylic acid], the MIC is 0.125 µg/mL (≈ 0.212 µM) in experiment [1] and at most 0.06 µg/mL in experiment [2].
The matching figures for `NCc1cn(C[C@@H]2[C@H](NC(=O)/C(=N\OC3(C(=O)O)CC3)c3csc(N)n3)C(=O)N2S(=O)(=O)O)nn1` [Example 27, 1-(((Z)-(2-(((2R,3S)-2-((4-(aminomethyl)-1H-1,2,3-triazol-1-yl)methyl)-4-oxo-1-sulfoazetidin-3-yl)amino)-1-(2-aminothiazol-4-yl)-2-oxoethylidene)amino)oxy)cyclopropanecarboxylic acid]: at most 0.06 µg/mL and 0.125 µg/mL (≈ 0.236 µM).
The matching figures for `C[C@H](O/N=C(\C(=O)N[C@@H]1C(=O)N(S(=O)(=O)O)[C@@H]1Cn1cncn1)c1csc(N)n1)C(=O)O` [Example 29, (S)-2-(((Z)-(2-(((2R,3S)-2-((1H-1,2,4-triazol-1-yl)methyl)-4-oxo-1-sulfoazetidin-3-yl)amino)-1-(2-aminothiazol-4-yl)-2-oxoethylidene)amino)oxy)propanoic acid]: 0.25 µg/mL (≈ 0.512 µM) and 1 µg/mL (≈ 2.05 µM).
The matching figures for `C[C@@H](O/N=C(\C(=O)N[C@@H]1C(=O)N(S(=O)(=O)O)[C@@H]1Cn1cncn1)c1csc(N)n1)C(=O)O` [Example 30, (R)-2-(((Z)-(2-(((2R,3S)-2-((1H-1,2,4-triazol-1-yl)methyl)-4-oxo-1-sulfoazetidin-3-yl)amino)-1-(2-aminothiazol-4-yl)-2-oxoethylidene)amino)oxy)propanoic acid]: 1 µg/mL (≈ 2.05 µM) and 1 µg/mL (≈ 2.05 µM).
